# Experimental data reported in BindingDB's records for doi:10.1021/ja050122x (Yale University, 2005).
# Target: Bcl-2-like protein 1 (Homo sapiens, UniProt Q07817)
# Experiment: Fluorescence Polarization Assay
# Details: pH 7.4; 25 °C
# Protocol: Fluorescence polarization experiments were conducted on a Photon Technology International instrument using a 0.3 cm path length cuvette. Spectra were measured at 25 deg C using 10.0 nm slit widths. Excitation at 495 nm was used for the fluorescein-containing peptide Fl-Bak and the emission maximum at 535 nm was monitored. Polarization measurements were recorded upon titration of inhibitors at varying concentrations into a solution of Fl-Bak and Bcl-xL. Regression analysis was carried out using SigmaPlot 2001 (Systat Co.) ligand binding macro module. Experimental data were fitted to determine the IC50 values, which can be related to the known affinity of the 16-mer Bak peptide (Kd =120 nM) to acquire the inhibitory constant Ki.
# Sequence of Bcl-2-like protein 1 (Q07817 whole entry): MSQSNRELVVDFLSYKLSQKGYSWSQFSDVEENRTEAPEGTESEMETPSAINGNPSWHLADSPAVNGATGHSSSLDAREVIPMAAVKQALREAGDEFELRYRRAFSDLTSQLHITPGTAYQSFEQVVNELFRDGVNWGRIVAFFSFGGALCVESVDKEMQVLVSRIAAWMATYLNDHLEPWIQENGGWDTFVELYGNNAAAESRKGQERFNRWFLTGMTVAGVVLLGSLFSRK
row,Compound,Ki [µM]
1,"CC(C)Cc1cc(-c2ccc(-c3ccc(CCC(=O)O)cc3CC(C)C)cc2Cc2cccc3ccccc23)ccc1OCC(=O)O [terphenyl scaffold, 14]",0.114
2,"CC(C)Cc1cc(-c2ccc(-c3ccc(CCC(=O)O)cc3CC(C)C)cc2C(C)C)ccc1OCC(=O)O [terphenyl scaffold, 15]",2.09
3,"CC(C)Cc1cc(OCC(=O)O)ccc1-c1ccc(-c2cccc(C(C)C)c2)c(CC(C)C)c1 [terphenyl scaffold, 27]",4.82
4,"CC(C)Cc1cc(CCC(=O)O)ccc1-c1ccc(-c2ccc(OCC(=O)O)c(Cc3cccc4ccccc34)c2)c(CC(C)C)c1 [terphenyl scaffold, 19]",2.7
5,"Cc1cc(OCC(=O)O)ccc1-c1ccc(-c2cccc(C(C)C)c2)c(C)c1 [terphenyl scaffold, 26]",10.4
6,"Cc1cc(CCC(=O)O)ccc1-c1cc(C)c(-c2ccc(OCC(=O)O)c(Cc3ccccc3)c2)c(CCC(=O)O)c1 [terphenyl scaffold, 21]",> 30
7,"CC(C)Cc1cc(-c2ccc(-c3ccc(CCCN)cc3CC(C)C)cc2C(C)C)ccc1OCCN [terphenyl scaffold, 24]",13.6

# The next lines start with the values.
row,Ki [µM],Compound
1,1.82,"CC(C)Cc1cc(-c2ccc(-c3ccc(CCC(=O)O)cc3CC(C)C)cc2Cc2ccccc2)ccc1OCC(=O)O [terphenyl scaffold, 16]"
2,2.34,"Cc1cc(CCC(=O)O)ccc1-c1cc(C)c(-c2ccc(OCC(=O)O)c(Cc3ccccc3)c2)c(C)c1 [terphenyl scaffold, 20]"
3,> 30,"COC(=O)CCc1ccc(-c2ccc(-c3ccc(OCC(=O)OC)cc3)cc2)cc1 [terphenyl scaffold, 22]"
4,2.73,"CC(C)Cc1cc(CCC(=O)O)ccc1-c1ccc(-c2ccc(OCC(=O)O)c(Cc3ccccc3)c2)c(Cc2ccccc2)c1 [terphenyl scaffold, 18]"
5,3.27,"CCc1cc(-c2ccc(OCC(=O)O)cc2C(C)C)ccc1-c1cccc(Cc2ccccc2)c1 [terphenyl scaffold, 28]"
6,18.2,"Cc1cccc(-c2ccc(-c3ccc(OCC(=O)O)cc3C)cc2C)c1 [terphenyl scaffold, 25]"
7,2.5,"CC(C)Cc1cc(-c2ccc(-c3ccc(CCC(=O)O)cc3CC(C)C)cc2Cc2ccc3ccccc3c2)ccc1OCC(=O)O [terphenyl scaffold, 17]"
8,> 30,"O=C(O)COc1ccc(-c2ccc(-c3ccccc3)cc2)cc1 [terphenyl scaffold, 30]"
9,6.88,CCc1cc(-c2ccc(OCC(=O)O)cc2C(C)C)ccc1-c1cccc(Cc2cccc3ccccc23)c1
